Among the test systems are SK-MEL-5 melanoma; A498 renal; K-562 leukemia; SW-620 colon; OVCAR-4 ovarian; RXF 393 renal; SK-MEL-28 melanoma; HOP-62 NSCLC; M14 melanoma; DU-145 prostate; 786-0 renal.
Common to all, as to assay: growth of human tumour cells (NCI), 48 h

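Briefly, cells in 96-well plates were exposed to five compound concentrations for 48 h, and endpoints were estimated by linear interpolation. TGI is the concentration that stops growth completely.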 Where a SMILES comes first, the peptide text is derived from it. The star is where a group is joined. ONb = O=[N+]([O-])c1ccc(CO*)cc1; Boc = CC(C)(C)OC(=O)*

For the compound `Cc1c2cnccc2c(C)c2c1c1ccccc1n2CCCCCCNCc1ccccc1`, the TGI in the test on SK-MEL-5 melanoma is 4.29 µM; with A498 renal, 3.85 µM; in the test on K-562 leukemia, 9.36 µM; in the test on SW-620 colon, 1.67 µM; in the test with OVCAR-4 ovarian, 1.25 µM; in the test on RXF 393 renal, 4.08 µM. Also, the values for the TGI in the test on SK-MEL-28 melanoma and in the test with HOP-62 NSCLC were 4.41 µM and 7.14 µM, respectively.
For `N#CCCC1(CCC#N)CCCCCCCCC(CCC#N)(CCC#N)C(=O)C1=O`, the TGI in the test with M14 melanoma, with K-562 leukemia, in the test on SW-620 colon, with OVCAR-4 ovarian, with DU-145 prostate and in the test on SK-MEL-28 melanoma was above 100 µM throughout. Moreover, the TGI in the test on HOP-62 NSCLC and with 786-0 renal was above 100 µM in each case.
Consider `CCCCCCCCCCCCCC[S+](C)C`, for which the TGI with SK-MEL-5 melanoma is 2.97 µM; in the test on M14 melanoma, 3.57 µM; in the test with K-562 leukemia it was 4.68 µM; with SW-620 colon it was above 10 µM; with OVCAR-4 ovarian, 7.31 µM; in the test on RXF 393 renal it was 2.72 µM. In addition, the TGI was above 10 µM with DU-145 prostate, 8.5 µM in the test on SK-MEL-28 melanoma, 3.87 µM with HOP-62 NSCLC and 2.61 µM in the test on 786-0 renal.
On to `COc1ccc(OC)c(CC2CCc3nc(N)nc(N)c3C2)c1` (stereo not drawn), for which the TGI was 28.9 µM in the test on SK-MEL-5 melanoma; 24.3 µM in the test on M14 melanoma; 62 µM in the test with A498 renal; above 100 µM with K-562 leukemia; above 100 µM in the test with SW-620 colon; above 100 µM with OVCAR-4 ovarian. The TGI is 4.37 µM in the test on RXF 393 renal, above 92.5 µM with SK-MEL-28 melanoma, 24.4 µM in the test with HOP-62 NSCLC and 4.46 µM with 786-0 renal.
`CCOc1ccc(/C=N/[N+](C)(C)C)cc1OCC`: the TGI in the test with SK-MEL-5 melanoma, in the test on M14 melanoma, with K-562 leukemia, in the test on SW-620 colon, in the test on OVCAR-4 ovarian and with DU-145 prostate was above 10 µM each time. Besides, the TGI with SK-MEL-28 melanoma, with HOP-62 NSCLC and with 786-0 renal was above 10 µM each time.
Consider `Cc1ccc(-n2[nH]nc(C#N)c2=O)cc1`, for which the TGI in the test with SK-MEL-5 melanoma, in the test with M14 melanoma, with K-562 leukemia, in the test with SW-620 colon, with OVCAR-4 ovarian and with RXF 393 renal was above 100 µM each time. Moreover, the TGI in the test on DU-145 prostate, with SK-MEL-28 melanoma, in the test on HOP-62 NSCLC and in the test with 786-0 renal was above 100 µM throughout.
In the case of `CN1CCC(CN2c3ccccc3Sc3ccccc32)CC1`, the TGI in the test with SK-MEL-5 melanoma was found to be 18.5 µM; in the test on M14 melanoma, 26 µM; in the test on A498 renal, 29 µM; in the test on K-562 leukemia, 32.3 µM; with SW-620 colon, 28.6 µM; in the test with OVCAR-4 ovarian, 30.5 µM. For the same compound, the TGI in the test on RXF 393 renal amounted to 15.1 µM; in the test on SK-MEL-28 melanoma it was 23.1 µM; in the test with HOP-62 NSCLC it was 32.2 µM; in the test with 786-0 renal, 27.3 µM.
For `COC1(OC)CC(CO)(CNc2cc(Cl)nc(N)n2)C1`, the TGI in the test on SK-MEL-5 melanoma, in the test on K-562 leukemia, in the test on SW-620 colon, in the test on OVCAR-4 ovarian, with RXF 393 renal and in the test on DU-145 prostate was above 100 µM each time. Further, the TGI in the test with SK-MEL-28 melanoma, in the test with HOP-62 NSCLC and with 786-0 renal was above 100 µM each time.
In the case of `CC(C)C1=CCC2C(=C1)CCC1C(C)(C(=O)O)CCCC21C` (stereo not drawn) (tested in a mixture with another compound), the TGI with SK-MEL-5 melanoma, in the test with M14 melanoma, in the test on A498 renal, in the test with SW-620 colon, in the test on OVCAR-4 ovarian and with RXF 393 renal was above 100 µM each time. Besides, the TGI in the test with DU-145 prostate, in the test with SK-MEL-28 melanoma, with HOP-62 NSCLC and with 786-0 renal was above 100 µM each time.
Regarding `CNC(=O)N(C)COC`, the TGI in the test with M14 melanoma, in the test with A498 renal, in the test on SW-620 colon, with OVCAR-4 ovarian, in the test on SK-MEL-28 melanoma and in the test on HOP-62 NSCLC was above 100 µM each time.
Consider `O=C(O)c1cnc2[nH]ccn2c1=O`, for which the TGI with SK-MEL-5 melanoma, in the test on M14 melanoma, in the test with A498 renal, in the test with K-562 leukemia, in the test on SW-620 colon and with OVCAR-4 ovarian was above 100 µM each time. Moreover, the TGI with DU-145 prostate, with SK-MEL-28 melanoma, in the test with HOP-62 NSCLC and with 786-0 renal was above 100 µM throughout.
With `CC(C)CC(NC(=O)OC(C)(C)C)C(=O)NC(CCC(=O)OCc1ccc([N+](=O)[O-])cc1)C(=O)OCc1ccc([N+](=O)[O-])cc1` (stereo not drawn) (Boc-Leu-Glu(ONb)-ONb; configuration not given here), the TGI is 57.8 µM with M14 melanoma; above 100 µM with A498 renal; 39.4 µM in the test on K-562 leukemia; above 100 µM with SW-620 colon; above 100 µM in the test with OVCAR-4 ovarian; 44.9 µM in the test with DU-145 prostate. In addition, the TGI in the test with SK-MEL-28 melanoma was 30.9 µM; with HOP-62 NSCLC, above 100 µM; in the test on 786-0 renal, 71.5 µM.
Regarding `Fc1ccc2nc3n(c2c1)C(c1c(Cl)cccc1Cl)SC3` (stereo not drawn), the TGI in the test with SK-MEL-5 melanoma, with M14 melanoma, with A498 renal, with SW-620 colon, in the test on OVCAR-4 ovarian and with RXF 393 renal was above 100 µM in each case. Further, the TGI in the test with DU-145 prostate, with SK-MEL-28 melanoma, in the test on HOP-62 NSCLC and in the test with 786-0 renal was above 100 µM each time.
In the case of `COc1ccc2oc(OC)c(CC=C(C)C)c(=O)c2c1C`, the TGI in the test on SK-MEL-5 melanoma, with M14 melanoma, with A498 renal, in the test with K-562 leukemia, in the test on SW-620 colon and with DU-145 prostate was above 100 µM each time. In addition, the TGI in the test with SK-MEL-28 melanoma, in the test on HOP-62 NSCLC and in the test on 786-0 renal was above 100 µM throughout.

For the origin of these results see PubChem BioAssay (NCI).
